Measured values from ChEMBL document CHEMBL6177953, “Discovery of a novel quinoxaline derivative modulator via a dual P53/TLR2 targeting strategy for the alleviation of radiation damage” (Eur J Med Chem, 2025).
Active and inactive are the calls of the source. The calls are words filed in the database; no cut-off is given here.

Legend:
AHH-1 [1] = assay: Antiradiation activity in human AHH-1 cells assessed as increase in cell viability at 2.5 to 10 micromol/L pre-treated with compound for 24 hrs followed by irradiation at 8 Gy measured after 24 hrs by CCK-8 assay; type: functional, cell-based; conditions: dose 2.5-10 µmol/L, time 48.0 hrs
Mus musculus [2] = assay: Radioprotective activity in male C57BL/6J mouse assessed as increase in body weight at 100 to 300 mg/kg, ip pre-treated with compound for 24.25 hrs followed by irradiation at 8.5 Gy and measured on day 18 post irradiation; type: functional, organism-based; conditions: dose 100-300 mg/kg, time 456.25 hrs
AHH-1 [3] = assay: Antiradiation activity in human AHH-1 cells assessed as increase in cell viability at 2.5 to 10 micromol/L pre-treated with compound for 24 hrs followed by irradiation at 4 Gy measured after 24 hrs by CCK-8 assay; type: functional, cell-based; conditions: dose 2.5-10 µmol/L, time 48.0 hrs
HUVEC [4] = assay: Antiradiation activity in human HUVEC assessed as cell viability at 5 to 20 micromol/L pre-treated with compound for 24 hrs followed by irradiation at 6 Gy measured after 96 hrs by CCK-8 assay; type: functional, cell-based; conditions: dose 5-20 µmol/L, time 120.0 hrs
Mus musculus [5] = assay: Radioprotective activity in male C57BL/6J mouse assessed as survival rate at 250 mg/kg, ip pre-treated with compound for 24.25 hrs followed by irradiation at 8.5 Gy and measured for 30 days post irradiation relative to control; type: functional; conditions: time 744.25 hrs
AHH-1 [6] = assay: Cytotoxicity against human AHH-1 cells incubated for 24 to 96 hrs by CCK-8 assay; type: functional, cell-based
AHH-1 [7] = assay: Antiradiation activity in human AHH-1 cells assessed as increase in cell viability at 2.5 to 10 micromol/L pre-treated with compound for 24 hrs followed by irradiation at 6 Gy measured after 24 hrs by CCK-8 assay; type: functional, cell-based; conditions: dose 2.5-10 µmol/L, time 48.0 hrs
[8] = Cytotoxicity against HUVEC incubated for 24 to 96 hrs by CCK-8 assay; type: toxicity, cell-based; conditions: human, HUVEC cells
HUVEC [9] = assay: Antiradiation activity in human HUVEC assessed as cell viability at 5 to 20 micromol/L pre-treated with compound for 24 hrs followed by irradiation at 8 Gy measured after 96 hrs by CCK-8 assay; type: functional, cell-based; conditions: dose 5-20 µmol/L, time 120.0 hrs
AHH-1 [10] = assay: Induction of apoptosis in human AHH-1 cells assessed as early apoptotic cells pre-treated with compound for 24 hrs followed by irradiation at 6 Gy and measured after 24 hrs by Annexin V-FITC/PI staining based Flow cytometry analysis (reference value: 8.15%); type: functional; conditions: time 48 hrs
Mus musculus [11] = assay: Radioprotective activity in male C57BL/6J mouse assessed as survival rate at 300 mg/kg, ip pre-treated with compound for 24.25 hrs followed by irradiation at 8.5 Gy and measured for 30 days post irradiation relative to control; type: functional; conditions: time 744.25 hrs
AHH-1 [12] = assay: Induction of apoptosis in human AHH-1 cells assessed as viable cells pre-treated with compound for 24 hrs followed by irradiation at 6 Gy and measured after 24 hrs by Annexin V-FITC/PI staining based Flow cytometry analysis (reference value: 83.6%); type: functional; conditions: time 48 hrs
Mus musculus [13] = assay: Radioprotective activity in male C57BL/6J mouse assessed as increase in cell growth at 250 to 300 mg/kg, ip pre-treated with compound for 24.25 hrs followed by irradiation at 6.5 Gy and measured on 30 day post irradiation; type: functional, organism-based; conditions: dose 250-300 mg/kg, time 744.25 hrs
AHH-1 [14] = assay: Induction of apoptosis in human AHH-1 cells assessed as necrotic cells pre-treated with compound for 24 hrs followed by irradiation at 6 Gy and measured after 24 hrs by Annexin V-FITC/PI staining based Flow cytometry analysis (reference value: 5.37%); type: functional; conditions: time 48 hrs
AHH-1 [15] = assay: Induction of apoptosis in human AHH-1 cells assessed as late apoptotic cells pre-treated with compound for 24 hrs followed by irradiation at 6 Gy and measured after 24 hrs by Annexin V-FITC/PI staining based Flow cytometry analysis (reference value: 2.65%); type: functional; conditions: time 48 hrs
Mus musculus [16] = assay: Radioprotective activity in male C57BL/6J mouse assessed as survival rate at 100 mg/kg, ip pre-treated with compound for 24.25 hrs followed by irradiation at 8.5 Gy and measured for 30 days post irradiation relative to control; type: functional; conditions: time 744.25 hrs
HUVEC [17] = assay: Upregulation of IL-6 secretion in HUVEC at 20 to 80 uM incubated for 24 hrs in presence of irradiation by ELISA; type: functional, cell-based; conditions: Homo sapiens, dose 20-80 µM
Mus musculus [18] = assay: Radioprotective activity in male C57BL/6J mouse assessed as time required to increase in neutrophil count at 250 mg/kg, ip pre-treated with compound for 24.25 hrs followed by irradiation at 6.5 Gy and measured on 30 day post irradiation; type: functional; conditions: time 744.25 hrs
AHH-1 [19] = assay: Antiradiation activity in human AHH-1 cells assessed as increase in cell viability at 2.5 micromol/L pre-treated with compound for 24 hrs followed by irradiation at 8 Gy measured after 24 hrs by CCK-8 assay; type: functional, cell-based; conditions: dose 2.5 µmol/L, time 48.0 hrs
AHH-1 [20] = assay: Radioprotective activity against 6 Gy radiation-induced DNA damage in human AHH-1 cells assessed as attenuation of gamma-H2AX expression incubated for 0.5 to 2 hrs by immunohistochemical staining based confocal fluorescence microscopic analysis; type: functional, cell-based; conditions: time 0.5-2 hrs
AHH-1 [21] = assay: Antiradiation activity in human AHH-1 cells assessed as increase in cell viability at 2.5 micromol/L pre-treated with compound for 24 hrs followed by irradiation at 6 Gy measured after 24 hrs by CCK-8 assay; type: functional, cell-based; conditions: dose 2.5 µmol/L, time 48.0 hrs
Mus musculus [22] = assay: Radioprotective activity in male C57BL/6J mouse assessed as attenuation of spleen atrophy at 250 mg/kg, ip pre-treated with compound for 24.25 hrs followed by irradiation at 13 Gy and measured on 3.5 day post irradiation; type: functional, organism-based; conditions: time 108.25 hrs
Toll-like receptor 2 [23] = target: T1, Toll-like receptor 2 (Homo sapiens, UniProt O60603); assay: Binding affinity to TLR2 (unknown origin) by SPR analysis; conditions: filed as modulator, dose 312.5-10000 nM
T1 sequence (O60603 whole entry): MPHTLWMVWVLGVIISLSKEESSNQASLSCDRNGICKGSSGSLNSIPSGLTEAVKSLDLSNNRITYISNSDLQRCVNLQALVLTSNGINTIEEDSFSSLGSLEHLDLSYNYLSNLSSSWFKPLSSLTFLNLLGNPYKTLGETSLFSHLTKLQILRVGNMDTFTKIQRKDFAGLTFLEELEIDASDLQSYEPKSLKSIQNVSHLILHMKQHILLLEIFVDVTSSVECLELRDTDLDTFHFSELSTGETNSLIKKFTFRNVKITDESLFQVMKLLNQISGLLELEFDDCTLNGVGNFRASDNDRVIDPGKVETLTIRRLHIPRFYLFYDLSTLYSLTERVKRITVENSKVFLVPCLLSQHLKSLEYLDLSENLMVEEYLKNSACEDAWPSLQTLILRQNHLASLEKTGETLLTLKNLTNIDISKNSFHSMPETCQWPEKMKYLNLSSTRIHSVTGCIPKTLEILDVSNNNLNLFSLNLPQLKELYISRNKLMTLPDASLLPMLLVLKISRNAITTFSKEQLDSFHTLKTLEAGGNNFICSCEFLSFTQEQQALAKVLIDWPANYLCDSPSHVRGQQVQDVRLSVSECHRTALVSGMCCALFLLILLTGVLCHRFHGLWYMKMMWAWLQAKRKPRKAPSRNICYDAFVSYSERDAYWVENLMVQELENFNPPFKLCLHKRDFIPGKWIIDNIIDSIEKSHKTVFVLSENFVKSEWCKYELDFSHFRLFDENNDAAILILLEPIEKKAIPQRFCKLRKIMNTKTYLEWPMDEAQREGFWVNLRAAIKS

HUVEC [24] = assay: Upregulation of P65 expression in HUVEC incubated for 24 hrs in presence of irradiation by Co-immunoprecipitation analysis; type: functional, cell-based; conditions: Homo sapiens
Mus musculus [25] = assay: Radioprotective activity in male C57BL/6J mouse assessed as time required to increase in RBC count at 250 mg/kg, ip pre-treated with compound for 24.25 hrs followed by irradiation at 6.5 Gy and measured on 30 day post irradiation; type: functional; conditions: time 744.25 hrs
Mus musculus [26] = assay: Radioprotective activity in male C57BL/6J mouse assessed as increase in crypts villus length in mouse jejunum at 250 mg/kg, ip pre-treated with compound for 24.25 hrs followed by irradiation at 13 Gy and measured on 3.5 day post irradiation; type: functional, organism-based; conditions: time 108.25 hrs
Mus musculus [27] = assay: Radioprotective activity in male C57BL/6J mouse assessed as increase in body weight at 250 mg/kg, ip pre-treated with compound for 24.25 hrs followed by irradiation at 8.5 Gy and measured on day 1 post irradiation; type: functional, organism-based; conditions: time 48.25 hrs
HUVEC [28] = assay: Upregulation of MyD88 expression in HUVEC incubated for 24 hrs in presence of irradiation by Co-immunoprecipitation analysis; type: functional, cell-based; conditions: Homo sapiens
Mus musculus [29] = assay: Radioprotective activity in male C57BL/6J mouse assessed as increase in body weight at 250 mg/kg, ip pre-treated with compound for 24.25 hrs followed by irradiation at 8.5 Gy and measured on day 18 post irradiation; type: functional, organism-based; conditions: time 456.25 hrs
AHH-1 [30] = assay: Antiradiation activity in human AHH-1 cells assessed as increase in cell viability at 2.5 micromol/L pre-treated with compound for 24 hrs followed by irradiation at 4 Gy measured after 24 hrs by CCK-8 assay; type: functional, cell-based; conditions: dose 2.5 µmol/L, time 48.0 hrs
AHH-1 [31] = assay: Induction of DNA damage repair activity in 6 Gy radiation-induced human AHH-1 cells assessed as downregulation of P53 level pre-treated with compound for 24 hrs followed by irradiation by Co-immunoprecipitation analysis; type: functional, cell-based
AHH-1 [32] = assay: Induction of DNA damage repair activity in 6 Gy radiation-induced human AHH-1 cells assessed as downregulation of Bax level pre-treated with compound for 24 hrs followed by irradiation by Co-immunoprecipitation analysis; type: functional, cell-based
Mus musculus [33] = assay: Radioprotective activity in male C57BL/6J mouse assessed as time required to increase in platelets at 250 mg/kg, ip pre-treated with compound for 24.25 hrs followed by irradiation at 6.5 Gy and measured on 30 day post irradiation; type: functional; conditions: time 744.25 hrs
Toll-like receptor 2 [34] = target: T1, Toll-like receptor 2; assay: Binding affinity to TLR2 (unknown origin) assessed as dissociation constant by SPR analysis
Mus musculus [35] = assay: Radioprotective activity in male C57BL/6J mouse assessed as time required to increase in WBC count at 250 mg/kg, ip pre-treated with compound for 24.25 hrs followed by irradiation at 6.5 Gy and measured on 30 day post irradiation; type: functional; conditions: time 744.25 hrs

## Cc1ccc(CS(=O)(=O)c2cnc3ccccc3n2)cc1
AHH-1 [1]
  Activity: Active
Mus musculus [2]
  Activity: Active
AHH-1 [3]
  Activity: Active
HUVEC [4]
  Activity: Active
Mus musculus [5]
  Activity: 80%
AHH-1 [6]
  IC50: 36.5 µM
AHH-1 [7]
  Activity: Active
[8]
  IC50: 56.1 µM
HUVEC [9]
  Activity: Active

## O=C([O-])c1ccc(/C=C/S(=O)(=O)Cc2ccc(Cl)cc2)cc1.[Na+] [RECILISIB SODIUM]
AHH-1 [10]
  Activity: 19.2%
AHH-1 [1]
  Activity: Active
Mus musculus [11]
  Activity: 20%
AHH-1 [12]
  Activity: 66.6%
Mus musculus [13]
  Activity: Active
Mus musculus [2]
  Activity: Active
AHH-1 [3]
  Activity: Active
AHH-1 [14]
  Activity: 5.5%
AHH-1 [6]
  IC50: 39.6 µM
AHH-1 [7]
  Activity: Active
[8]
  IC50: > 60 µM
AHH-1 [15]
  Activity: 8.65%

## O=C(O)c1ccc(CS(=O)(=O)c2cnc3cc(Cl)ccc3n2)cc1
AHH-1 [1]
  Activity: Active
Mus musculus [2]
  Activity: Active
AHH-1 [3]
  Activity: Active
Mus musculus [16]
  Activity: 50%
AHH-1 [6]
  IC50: 22.4 µM
AHH-1 [7]
  Activity: Active
[8]
  IC50: > 60 µM

## N#Cc1ccc(CS(=O)(=O)c2cnc3ccccc3n2)cc1
AHH-1 [10]
  Activity: 13.1%
HUVEC [17]
  Activity: Active
Mus musculus [18]
  Time: 14 days
AHH-1 [19]
  Activity: Active
AHH-1 [20]
  Activity: Active
AHH-1 [1]
  Activity: Active
AHH-1 [21]
  Activity: Active
AHH-1 [12]
  Activity: 72%
Mus musculus [22]
  Activity: Active
Toll-like receptor 2 [23]
  Activity: Dose-dependent-effect
Mus musculus [13]
  Activity: Active
HUVEC [24]
  Activity: Active
AHH-1 [3]
  Activity: Active
AHH-1 [14]
  Activity: 8.81%
HUVEC [4]
  Activity: Active
Mus musculus [25]
  Time: 14 days
Mus musculus [26]
  Activity: Active
Mus musculus [5]
  Activity: 100%
AHH-1 [6]
  IC50: > 60 µM
Mus musculus [27]
  Activity: inactive
AHH-1 [7]
  Activity: Active
HUVEC [28]
  Activity: Active
Mus musculus [29]
  Activity: Active; Compound Showed Significant Regaining Effect
AHH-1 [30]
  Activity: Active
AHH-1 [31]
  Activity: Active
AHH-1 [32]
  Activity: Active
Mus musculus [33]
  Time: 14 days
[8]
  IC50: > 60 µM
AHH-1 [15]
  Activity: 6.07%
HUVEC [9]
  Activity: Active
Toll-like receptor 2 [34]
  Kd: 3.93 µM
Mus musculus [35]
  Time: 10 days
